Experimental data from PubChem BioAssay (NCI).
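Five concentrations, 48 hours, 96-well plates. Definition used: TGI = concentration required for complete inhibition of growth.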

Experiments:
Experiment in all cases: NCI-60 cell line screen, 48 h
NCI-H460 lung = system: NCI-H460 lung
KM12 colon = system: KM12 colon
NCI-H226 lung = system: NCI-H226 lung
COLO 205 colon = system: COLO 205 colon
SNB-75 CNS = system: SNB-75 CNS
SF-539 CNS = system: SF-539 CNS
LOX IMVI melanoma = system: LOX IMVI melanoma
MOLT-4 leukemia = system: MOLT-4 leukemia
UACC-62 melanoma = system: UACC-62 melanoma
CCRF-CEM leukemia = system: CCRF-CEM leukemia
EKVX NSCLC = system: EKVX NSCLC
HCT-15 colon = system: HCT-15 colon
HS 578T breast = system: HS 578T breast
K-562 leukemia = system: K-562 leukemia
NCI/ADR-RES ovarian = system: NCI/ADR-RES ovarian
SF-268 CNS = system: SF-268 CNS
MDA-MB-435 = system: MDA-MB-435
HCC-2998 colon = system: HCC-2998 colon
SK-MEL-5 melanoma = system: SK-MEL-5 melanoma
SK-MEL-28 melanoma = system: SK-MEL-28 melanoma
PC-3 prostate = system: PC-3 prostate
HL-60(TB) leukemia = system: HL-60(TB) leukemia
M14 melanoma = system: M14 melanoma
UACC-257 melanoma = system: UACC-257 melanoma
BT-549 breast = system: BT-549 breast
MCF7 breast = system: MCF7 breast
OVCAR-4 ovarian = system: OVCAR-4 ovarian
UO-31 renal = system: UO-31 renal
SK-MEL-2 melanoma = system: SK-MEL-2 melanoma
DU-145 prostate = system: DU-145 prostate
HT29 colon = system: HT29 colon
OVCAR-8 ovarian = system: OVCAR-8 ovarian
A498 renal = system: A498 renal
ACHN renal = system: ACHN renal
SR leukemia = system: SR leukemia
T-47D breast = system: T-47D breast
MALME-3M melanoma = system: MALME-3M melanoma
CAKI-1 renal = system: CAKI-1 renal
NCI-H23 lung = system: NCI-H23 lung
SN12C renal = system: SN12C renal
RPMI-8226 leukemia = system: RPMI-8226 leukemia
OVCAR-5 ovarian = system: OVCAR-5 ovarian
HOP-92 NSCLC = system: HOP-92 NSCLC
MDA-N = system: MDA-N
RXF 393 renal = system: RXF 393 renal
TK-10 renal = system: TK-10 renal
SNB-19 CNS = system: SNB-19 CNS
786-0 renal = system: 786-0 renal
IGROV1 ovarian = system: IGROV1 ovarian
NCI-H522 lung = system: NCI-H522 lung
MDA-MB-231 breast = system: MDA-MB-231 breast
HCT-116 colon = system: HCT-116 colon
SW-620 colon = system: SW-620 colon
A549 NSCLC = system: A549 NSCLC
U251 CNS = system: U251 CNS
SK-OV-3 ovarian = system: SK-OV-3 ovarian
OVCAR-3 ovarian = system: OVCAR-3 ovarian
SF-295 CNS = system: SF-295 CNS
HOP-62 NSCLC = system: HOP-62 NSCLC

Q: N#CC1C(=S)NC(c2ccccc2)=CC12CCCCC2 (stereo unspecified) was tested. Which TGI (NCI-H460 lung) did it give?
A: > 100 µM

Q: And the TGI (KM12 colon)?
A: 60.2 µM

Q: And the TGI (NCI-H226 lung)?
A: 77.4 µM

Q: What about the TGI (COLO 205 colon) of the same compound?
A: > 100 µM

Q: And the TGI (SNB-75 CNS)?
A: > 100 µM

Q: And the TGI (SF-539 CNS)?
A: > 100 µM

Q: And the TGI (LOX IMVI melanoma)?
A: 40.7 µM

Q: What about the TGI (MOLT-4 leukemia) of the same compound?
A: 53.2 µM

Q: And the TGI (UACC-62 melanoma)?
A: 42.7 µM

Q: And the TGI (CCRF-CEM leukemia)?
A: 56.4 µM

Q: What about the TGI (EKVX NSCLC) of the same compound?
A: 44.6 µM

Q: What about the TGI (HCT-15 colon) of the same compound?
A: 53 µM

Q: And the TGI (HS 578T breast)?
A: > 100 µM

Q: What about the TGI (K-562 leukemia) of the same compound?
A: > 100 µM

Q: What about the TGI (NCI/ADR-RES ovarian) of the same compound?
A: > 100 µM

Q: And the TGI (SF-268 CNS)?
A: > 100 µM

Q: What about the TGI (MDA-MB-435) of the same compound?
A: 40.3 µM

Q: What about the TGI (HCC-2998 colon) of the same compound?
A: > 100 µM

Q: What about the TGI (SK-MEL-5 melanoma) of the same compound?
A: 90.4 µM

Q: What about the TGI (SK-MEL-28 melanoma) of the same compound?
A: 95.5 µM

Q: And the TGI (PC-3 prostate)?
A: > 100 µM

Q: What about the TGI (HL-60(TB) leukemia) of the same compound?
A: 52.1 µM

Q: And the TGI (M14 melanoma)?
A: 84.9 µM

Q: What about the TGI (UACC-257 melanoma) of the same compound?
A: > 100 µM

Q: What about the TGI (BT-549 breast) of the same compound?
A: 35.7 µM

Q: And the TGI (MCF7 breast)?
A: 42.4 µM

Q: What about the TGI (OVCAR-4 ovarian) of the same compound?
A: 85.5 µM

Q: And the TGI (UO-31 renal)?
A: 72.1 µM

Q: What about the TGI (SK-MEL-2 melanoma) of the same compound?
A: 55.8 µM

Q: What about the TGI (DU-145 prostate) of the same compound?
A: 61.5 µM

Q: And the TGI (HT29 colon)?
A: > 100 µM

Q: What about the TGI (OVCAR-8 ovarian) of the same compound?
A: > 100 µM

Q: And the TGI (A498 renal)?
A: 50.3 µM

Q: And the TGI (ACHN renal)?
A: 72.3 µM

Q: And the TGI (SR leukemia)?
A: 50.2 µM

Q: And the TGI (T-47D breast)?
A: 31.1 µM

Q: And the TGI (MALME-3M melanoma)?
A: 43.2 µM

Q: And the TGI (CAKI-1 renal)?
A: > 100 µM

Q: And the TGI (NCI-H23 lung)?
A: 36.9 µM

Q: What about the TGI (SN12C renal) of the same compound?
A: > 100 µM

Q: What about the TGI (RPMI-8226 leukemia) of the same compound?
A: 54.3 µM

Q: And the TGI (OVCAR-5 ovarian)?
A: > 100 µM

Q: What about the TGI (HOP-92 NSCLC) of the same compound?
A: 55.3 µM

Q: And the TGI (MDA-N)?
A: > 100 µM

Q: And the TGI (RXF 393 renal)?
A: > 100 µM

Q: And the TGI (TK-10 renal)?
A: 54.9 µM

Q: And the TGI (SNB-19 CNS)?
A: > 100 µM

Q: What about the TGI (786-0 renal) of the same compound?
A: > 100 µM

Q: What about the TGI (IGROV1 ovarian) of the same compound?
A: 70.2 µM

Q: And the TGI (NCI-H522 lung)?
A: 42.2 µM

Q: What about the TGI (MDA-MB-231 breast) of the same compound?
A: > 100 µM

Q: And the TGI (HCT-116 colon)?
A: 62.1 µM

Q: And the TGI (SW-620 colon)?
A: > 100 µM

Q: What about the TGI (A549 NSCLC) of the same compound?
A: > 100 µM

Q: What about the TGI (U251 CNS) of the same compound?
A: > 100 µM

Q: CC(=O)c1ccccc1NP(=O)(c1ccccc1)c1ccccc1 was tested. Which TGI (NCI-H460 lung) did it give?
A: > 100 µM

Q: What about the TGI (KM12 colon) of the same compound?
A: > 100 µM

Q: And the TGI (COLO 205 colon)?
A: 34.4 µM

Q: What about the TGI (SF-539 CNS) of the same compound?
A: > 100 µM

Q: And the TGI (SK-OV-3 ovarian)?
A: 60.8 µM

Q: And the TGI (LOX IMVI melanoma)?
A: > 100 µM

Q: And the TGI (MOLT-4 leukemia)?
A: > 100 µM

Q: And the TGI (UACC-62 melanoma)?
A: > 100 µM

Q: And the TGI (CCRF-CEM leukemia)?
A: > 100 µM

Q: And the TGI (EKVX NSCLC)?
A: > 100 µM

Q: And the TGI (HCT-15 colon)?
A: > 100 µM

Q: And the TGI (HS 578T breast)?
A: > 100 µM

Q: What about the TGI (K-562 leukemia) of the same compound?
A: > 100 µM

Q: And the TGI (NCI/ADR-RES ovarian)?
A: > 100 µM

Q: What about the TGI (SF-268 CNS) of the same compound?
A: > 100 µM

Q: What about the TGI (MDA-MB-435) of the same compound?
A: > 100 µM

Q: What about the TGI (HCC-2998 colon) of the same compound?
A: > 100 µM

Q: What about the TGI (SK-MEL-5 melanoma) of the same compound?
A: > 100 µM

Q: And the TGI (SK-MEL-28 melanoma)?
A: > 100 µM

Q: And the TGI (PC-3 prostate)?
A: > 100 µM

Q: What about the TGI (HL-60(TB) leukemia) of the same compound?
A: 87.7 µM

Q: What about the TGI (M14 melanoma) of the same compound?
A: > 100 µM

Q: And the TGI (UACC-257 melanoma)?
A: > 100 µM

Q: And the TGI (BT-549 breast)?
A: > 100 µM

Q: And the TGI (MCF7 breast)?
A: > 100 µM

Q: And the TGI (OVCAR-4 ovarian)?
A: > 100 µM

Q: And the TGI (OVCAR-3 ovarian)?
A: > 100 µM

Q: What about the TGI (UO-31 renal) of the same compound?
A: > 100 µM

Q: And the TGI (SK-MEL-2 melanoma)?
A: > 100 µM

Q: And the TGI (DU-145 prostate)?
A: > 100 µM

Q: And the TGI (HT29 colon)?
A: > 100 µM

Q: And the TGI (OVCAR-8 ovarian)?
A: > 100 µM

Q: And the TGI (A498 renal)?
A: > 100 µM

Q: What about the TGI (ACHN renal) of the same compound?
A: > 100 µM

Q: And the TGI (SR leukemia)?
A: > 100 µM

Q: What about the TGI (T-47D breast) of the same compound?
A: > 100 µM

Q: What about the TGI (MALME-3M melanoma) of the same compound?
A: > 100 µM

Q: What about the TGI (CAKI-1 renal) of the same compound?
A: > 100 µM

Q: What about the TGI (NCI-H23 lung) of the same compound?
A: > 100 µM

Q: What about the TGI (SN12C renal) of the same compound?
A: > 100 µM

Q: And the TGI (RPMI-8226 leukemia)?
A: 62.8 µM

Q: What about the TGI (OVCAR-5 ovarian) of the same compound?
A: > 100 µM

Q: What about the TGI (SF-295 CNS) of the same compound?
A: > 100 µM

Q: And the TGI (MDA-N)?
A: > 100 µM

Q: What about the TGI (RXF 393 renal) of the same compound?
A: > 100 µM

Q: What about the TGI (TK-10 renal) of the same compound?
A: > 100 µM

Q: What about the TGI (SNB-19 CNS) of the same compound?
A: > 100 µM

Q: And the TGI (786-0 renal)?
A: > 100 µM

Q: What about the TGI (IGROV1 ovarian) of the same compound?
A: > 100 µM

Q: What about the TGI (HOP-62 NSCLC) of the same compound?
A: > 100 µM

Q: And the TGI (NCI-H522 lung)?
A: > 100 µM

Q: And the TGI (MDA-MB-231 breast)?
A: > 100 µM

Q: What about the TGI (HCT-116 colon) of the same compound?
A: > 100 µM

Q: And the TGI (SW-620 colon)?
A: > 100 µM

Q: And the TGI (A549 NSCLC)?
A: > 100 µM

Q: And the TGI (U251 CNS)?
A: > 100 µM
